Test results as given in article PMC7450057, “Enhancing intracellular accumulation and target engagement of PROTACs with reversible covalent chemistry” (Nature Communications, 2020).
“And” between values parts separate entries of the source, which are not always exact repeats. Identical values can stand only once.

Experiments:
MOLM-14 cells [1] = assay: AlamarBlue cell viability assay, MOLM-14; settings: for MOLM-14 Cell Viability%: Figure 2f, 5 replicates; for IC50: Homo sapiens, MOLM-14, 72 h, read-out: Cell viability IC50, MOLM-14 cells, 72 h, Alamar Blue; for Cell viability, MOML-14: Supplementary Figure 7, replicates
Method: (§1) The IC50 was calculated using GraphPad Prism software with a four-parameter dose-response curve fit.

MOLM-14 cells [2] = assay: Quantitative multiplexed (TMT) proteomics of compound-treated cells; type: cell-based, Homo sapiens; settings: 200 nM, 24 h
Method: For proteomic study of the cellular protein profile following BTK degradation, MOLM-14 cells were treated in duplicate with 200 nM of RC-1, RNC-1, IRC-1, or RC-1-Me for 24 h, and then the cells were collected and processed for proteomics analysis (Sanford Burnham Prebys Medical Discovery Institute, La Jolla, California).
For cell lysis and protein digestion, cells were lysed with vigorous shaking (20 Hz for 10 min at room temperature by Retsch MM301 instrument) in 0.5 mL of lysis buffer (8 M urea, 50 mM ammonium bicarbonate (ABC); plus Benzonase 24U/100 ml), and extracted proteins were centrifuged at 14,000 × g for 10 min to remove cellular debris. Supernatant protein concentration was determined using a bicinchoninic acid (BCA) protein assay. Following quantification, the proteins were digested in solution. First, protein disulfide bonds were reduced with 5 mM tris(2-carboxyethyl)phosphine (TCEP) at 30 °C for 60 min, alkylated (carbamidomethylated) with 15 mM iodoacetamide (IAA) in the dark at room temperature for 30 min. Urea was then diluted to 1 M urea using 50 mM ammonium bicarbonate, and proteins were subjected to overnight digestion with mass spec grade Trypsin/Lys-C mix. Following digestion, samples were acidified with formic acid (FA) and subsequently desalted using Waters Sep-Pak C18. Cartridges were sequentially conditioned with 100% acetonitrile (ACN) and 0.1% FA, samples were then loaded, washed with 0.1% FA, and peptides eluted with 60% ACN, 0.1% FA. Finally, the organic solvent was removed in a SpeedVac concentrator prior to LC-MS/MS analysis.
Prior to TMT labeling, sample peptide amount was quantified using a NanoDrop^TM spectrophotometer (ThermoFisher). Samples were labeled according to the table schematic shown below using our TMT protocol. Briefly, a normalized amount of peptides sample was resuspended in 200 mM HEPES pH 8, and then labeled with one of the TMT10-plex reagents for 1 h at room temperature. TMT labels/channels were as follows:
Reactions were quenched with 5% hydroxylamine solution. The 10 samples were then combined, dried down in a SpeedVac system, resuspended in 0.1% FA, and desalted as described above. After desalting, the organic solvent was removed in a SpeedVac concentrator.
Dried samples were reconstituted in 20 mM ammonium formate pH ~10, and fractionated by high pH reverse phase using a Waters Acquity CSH C18 2.1-µm 1 × 150 mm column mounted on an M-Class Ultra Performance Liquid Chromatography (UPLC) system (Waters corp., Milford, MA). […] A total of 36 fractions were collected and pooled in a non-contiguous manner into 18 total fractions: 1 + 19, 2 + 20, 3 + 21, 4 + 22, 5 + 23, 6 + 24, 7 + 25, 8 + 26, 9 + 27, 10 + 28, 11 + 29, 12 + 30, 13 + 31, 14 + 32, 15 + 33, 16 + 34, 17 + 35, and 18 + 36. Pooled fractions were dried to completeness in a SpeedVac concentrator.
Dried fractions were reconstituted with 2% ACN-0.1% FA and analyzed by LC-MS/MS using a nanoACQUITY system (Waters) coupled to an Orbitrap Fusion Lumos mass spectrometer (Thermo Fisher Scientific). […] The mass spectrometer was operated in positive data-dependent acquisition mode. MS1 spectra were measured in the Orbitrap with a resolution of 60,000 (AGC target: 4e5; maximum injection time: 50 ms; mass range: from 350 to 1500 m/z). The instrument was set to run in top speed mode with 3 s cycles for the survey and the MS/MS scans. After a survey scan, tandem MS was performed in the Ion Routing Multipole HCD-Cell on the most abundant precursors by isolating them in the quadrupole (Isolation window: 0.7 m/z; charge state: +2–7; collision energy: 35%). […] The dynamic exclusion was set to 20 s with a 10-ppm mass tolerance around the precursor and its isotopes.
For data analysis, all mass spectra were analyzed with MaxQuant software version 1.5.5.1. MS/MS spectra were searched against the Homo sapiens Uniprot protein sequence database (version January 2018) and GPM cRAP sequences (commonly known protein contaminants). […]

Mino cells = assay: AlamarBlue cell viability assay, Mino; type: cell-based; settings: for Mino Cell Viability%: Figure 2f, 5 replicates
Method: as §1

C481S mutant BTK = molecular target: T1, C481S mutant BTK (Homo sapiens, UniProt Q06187, C481S); assay: BTK degradation in XLA cells overexpressing C481S mutant BTK (western blot); type: cell-based; settings: 24 h
T1 construct: expressed in transfected cells; host or cells: XLA cells (gift from Dr. Woyach)
Method: XLA cells overexpressing wild-type BTK or mutant C481S BTK were plated at the same cell number and density as the above experiments and were treated with RC-1, IRC-1, or RNC-1 at the dose of 1.6, 8.0, 40, 200, and 1000 nM for 24 h. After completion of treatment, all the cells were collected and processed for western blot analysis.
The collected cells and spleen tissues were lysed in RIPA lysis buffer (50 mM Tris-HCl, pH 7.4, 150 mM NaCl, 1% NP-40, 0.5% sodium deoxycholate, 0.1% SDS) supplemented with Halt™ Protease and Phosphatase Inhibitor Cocktail (Thermo Fisher Scientific, Cat. No. PI78440) immediately before use. Lysates were centrifuged at 15,000 × g for 10 min at 4 °C and the supernatant was quantified for total protein concentration using the Pierce BCA Protein Assay (Thermo Fisher Scientific, Cat. No. 23225). Thirty micrograms of protein were loaded onto sodium dodecyl sulfate−polyacrylamide gel for electrophoresis (Bio-Rad) and transferred onto PVDF membranes (Millipore, Cat. No. IPVH00010). […] Imaging was performed using the ECL Prime chemiluminescent western blot detection reagents (GE Healthcare, Cat. No. RPN2232) by visualization of the blots to X-Ray film or with an Imager (Kindle Biosciences, Cat. No. D1001). All western blots were subsequently processed and quantified with Imager software. Protein level was normalized to β-actin or GAPDH loading controls.

T1 sequence (Q06187 whole entry C481S): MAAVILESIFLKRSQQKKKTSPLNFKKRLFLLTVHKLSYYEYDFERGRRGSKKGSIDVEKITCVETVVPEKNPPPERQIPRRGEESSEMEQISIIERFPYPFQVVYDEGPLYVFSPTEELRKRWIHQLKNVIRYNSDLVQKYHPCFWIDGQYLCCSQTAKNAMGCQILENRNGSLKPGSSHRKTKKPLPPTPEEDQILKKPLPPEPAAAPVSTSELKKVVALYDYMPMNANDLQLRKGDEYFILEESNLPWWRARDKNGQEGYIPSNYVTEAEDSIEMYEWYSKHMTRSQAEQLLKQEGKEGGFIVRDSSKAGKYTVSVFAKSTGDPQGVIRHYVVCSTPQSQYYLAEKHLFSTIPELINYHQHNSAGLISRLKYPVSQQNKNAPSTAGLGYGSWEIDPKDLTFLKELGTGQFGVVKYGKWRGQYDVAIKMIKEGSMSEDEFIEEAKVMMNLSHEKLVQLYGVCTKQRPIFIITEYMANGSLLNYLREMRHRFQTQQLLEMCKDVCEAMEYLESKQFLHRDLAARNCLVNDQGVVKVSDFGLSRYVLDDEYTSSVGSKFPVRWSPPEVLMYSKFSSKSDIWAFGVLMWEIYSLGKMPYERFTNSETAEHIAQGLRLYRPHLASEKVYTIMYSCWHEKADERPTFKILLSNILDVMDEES

| SMILES | IC50 (MOLM-14 cells [1]) [nM] | degradation of IMiD-dependent substrates IKZF1, ZFP91, ZNF692 (MOLM-14 cells [2]) | kinases degraded (proteomics) (MOLM-14 cells [2]) | Cell viability, MOML-14 (MOLM-14 cells [1]; drug concentration 1.00E-05 M) | Cell viability, MOML-14 (MOLM-14 cells [1]; drug concentration 1.60E-08 M) | Cell viability, MOML-14 (MOLM-14 cells [1]; drug concentration 2.00E-06 M) | Cell viability, MOML-14 (MOLM-14 cells [1]; drug concentration 3.20E-09 M) | Cell viability, MOML-14 (MOLM-14 cells [1]; drug concentration 4.00E-07 M) | Cell viability, MOML-14 (MOLM-14 cells [1]; drug concentration 6.40E-10 M) | Cell viability, MOML-14 (MOLM-14 cells [1]; drug concentration 8.00E-08 M) | also measured |
| --- | --- | --- | --- | --- | --- | --- | --- | --- | --- | --- | --- |
| CN(CCCNC(=O)CNc1cccc2c1C(=O)N(C1CCC(=O)NC1=O)C2=O)CCCC(=O)N1CCCC(n2nc(-c3ccc(Oc4ccccc4)cc3)c3c(N)ncnc32)C1 (stereo not shown) [RNC-1] | 4100 | specifically degraded | 7 | – | – | – | – | – | – | – | MOLM-14 Cell Viability% (MOLM-14 cells [1]; 1.00E-05 M): 22.564% and 21.8706% and 28.4317% and 19.6302% and 20.5903%; MOLM-14 Cell Viability% (MOLM-14 cells [1]; 1.60E-08 M): 88.2112% and 80.7255% and 82.3435% and 80.6899% and 90.8606%; MOLM-14 Cell Viability% (MOLM-14 cells [1]; 2.00E-06 M): 59.495% and 70.377% and 65.6472% and 60.4907% and 61.7354%; MOLM-14 Cell Viability% (MOLM-14 cells [1]; 3.20E-09 M): 88.958% and 75.6935% and 86.6821% and 75.5334% and 84.3883%; MOLM-14 Cell Viability% (MOLM-14 cells [1]; 4.00E-07 M): 78.8051% and 78.5206% and 78.325% and 79.1785% and 78.2717%; MOLM-14 Cell Viability% (MOLM-14 cells [1]; 6.40E-10 M): 75.0356% and 77.596% and 87.8023% and 83.7127% and 80.761%; MOLM-14 Cell Viability% (MOLM-14 cells [1]; 8.00E-08 M): 68.7056% and 84.1394% and 79.712% and 75.2134% and 77.276%; Mino Cell Viability% (Mino cells; 1.00E-06 M): 58.0853% and 51.9026% and 45.6712% and 52.4594%; Mino Cell Viability% (Mino cells; 1.60E-09 M): 101.95% and 90.6294% and 68.165% and 98.7947% and 93.12%; Mino Cell Viability% (Mino cells; 2.00E-07 M): 37.8282% and 87.963% and 68.8682% and 84.564% and 91.6647%; Mino Cell Viability% (Mino cells; 3.20E-10 M): 102.731% and 88.3341% and 102.301% and 86.4979% and 82.7278%; Mino Cell Viability% (Mino cells; 4.00E-08 M): 90.0141% and 69.2003% and 110.3% and 97.7887% and 98.2185%; Mino Cell Viability% (Mino cells; 5.00E-06 M): 16.067% and 36.4022% and 19.085% and 31.8214% and 33.179%; Mino Cell Viability% (Mino cells; 8.00E-09 M): 96.0404% and 89.3401% and 104.098% and 90.522% and 101.012%; IC50 (Mino cells; Homo sapiens, Mino cells, 72 h, Alamar Blue): 1000 nM |
| CC(C)(C)C=C(C#N)C(=O)N1CCCC(n2nc(-c3ccc(Oc4ccccc4)cc3)c3c(N)ncnc32)C1 (stereo not shown) [RC-Ctrl] | 500 | – | – | 7.067 and 3.271 and 5.661 and 1.305 and 2.339 | 100.163 and 86.7229 and 69.3512 and 65.5718 and 65.0973 | 19.6597 and 13.6262 and 19.5071 and 12.6093 and 12.5585 | 99.2136 and 96.6714 and 77.7744 and 79.5709 and 66.0125 | 73.5374 and 63.2161 and 57.9961 and 48.3526 and 44.7427 | 106.654 and 105.722 and 82.8418 and 81.5368 and 73.0798 | 93.8411 and 82.0283 and 73.1815 and 65.3176 and 60.962 | – |
| CN1C(=O)CCC(N2C(=O)c3cccc(NCC(=O)NCCCN(C)C(C)(C)C=C(C#N)C(=O)N4CCCC(n5nc(-c6ccc(Oc7ccccc7)cc6)c6c(N)ncnc65)C4)c3C2=O)C1=O (stereo not shown) [RC-1-Me] | 210 | – | no degradation is observed | 5.925 and 2.684 and 5.158 and 0.5402 and 1.464 | 108.445 and 78.2274 and 85.8427 and 61.7071 and 70.0718 | 12.3031 and 8.922 and 10.0028 and 5.594 and 8.609 | 105.5 and 93.5975 and 67.3881 and 77.0075 and 77.9834 | 48.707 and 38.2511 and 45.3611 and 24.9024 and 42.2243 | 105.5 and 122.177 and 88.0908 and 73.4874 and 67.8761 | 81.0853 and 58.6749 and 68.6428 and 51.3383 and 65.994 | – |
| CN(CC=CC(=O)N1CCCC(n2nc(-c3ccc(Oc4ccccc4)cc3)c3c(N)ncnc32)C1)CCCNC(=O)CNc1cccc2c1C(=O)N(C1CCC(=O)NC1=O)C2=O (stereo not shown) [IRC-1] | 2700 | specifically degraded | 7 | 18.0378 and 23.8364 and 27.2416 and 22.4354 and 21.8906 | 95.6375 and 84.8576 and 100.21 and 79.6428 and 95.3845 | 77.6385 and 69.5439 and 88.1655 and 70.6919 and 85.8499 | 83.1063 and 84.2544 and 98.5173 and 96.2017 and 79.9735 | 95.365 and 106.398 and 86.1807 and 91.7653 and 81.4134 | 91.6096 and 88.3017 and 105.931 and 90.734 and 74.6225 | 76.0624 and 92.5825 and 94.7813 and 82.8144 and 77.7553 | BTK degradation (in words) (C481S mutant BTK): much more effective degradation of the BTK C481S mutant than its wild-type |
